# Patent US5593970A, “Heterocyclic anthracycline analogs” (priority 1994, dated 1997)
# Several values for one entry are separate records, joined by “and”; a condition that tells them apart may be missing. Equal values may be shown once. Read-outs that look alike come from different tables or passages of the source.
# How the values were obtained:
# Assay in all cases: NCI sulforhodamine B assay
# Assay type in all cases: cell-based, human
# SF-539 = test system: SF-539
# Procedure: (§1) These assays were carried out at the Developmental Therapeutics Program, Division of Cancer Treatment, National Cancer Institute (Bethesda, Md., U.S.A.). The method consists of incubating varying concentrations of the drug with an inoculum of cells for two days. […] The 57 cell lines included two mouse leukemia lines (P388 parental and adriamycin resistant) and […] human cell lines.
# (§2) It should be noted that the first two parameters (GI50 and TGI) relate to antiproliferation effects while the third one (LC50) indicates true cytotoxicity. A value of -4 or greater is considered to denote resistance (inactivity).
# OVCAR-4 = test system: OVCAR-4
# Procedure: as §1, §2
# HOP-18 = test system: HOP-18
# Procedure: as §1, §2
# MCF-7/ADR = test system: MCF-7/ADR
# Procedure: as §1, §2
# EKVX = test system: EKVX
# Procedure: as §1, §2
# HCC-2998 = test system: HCC-2998
# Procedure: as §1, §2
# RXF-393L = test system: RXF-393L
# Procedure: as §1, §2
# UACC-62 = test system: UACC-62
# Procedure: as §1, §2
# UO-31 = test system: UO-31
# Procedure: as §1, §2
# MALMB-3M = test system: MALMB-3M
# Procedure: as §1, §2
# SK-MEL-28 = test system: SK-MEL-28
# Procedure: as §1, §2
# SN-12C = test system: SN-12C
# Procedure: as §1, §2
# LOX-IMVI = test system: LOX-IMVI
# Procedure: as §1, §2
# UACC-257 = test system: UACC-257
# Procedure: as §1, §2
# OVCAR-5 = test system: OVCAR-5
# Procedure: as §1, §2
# SK-MEL-5 = test system: SK-MEL-5
# Procedure: as §1, §2
# HOP-92 = test system: HOP-92
# Procedure: as §1, §2
# MCF-7 = test system: MCF-7
# Procedure: as §1, §2
# SK-MEL-2 = test system: SK-MEL-2
# Procedure: as §1, §2
# HCT-15 = conditions: 2880 min
# Procedure: as §1, §2
# NCl-H460 = test system: NCl-H460
# Procedure: as §1, §2
structure (smiles),measurement,setting,value
"COC(=O)C1CC2=C(C(=O)c3c(cc4ccccc4c3O)C2=O)C(O[C@H]2C[C@H](NC(=O)C(F)(F)F)[C@H](O)[C@H](C)O2)O1 (mixture of isomers) [BCH-242, (1'S,1R,3S) and (1'S, 1S,3R)-Methyl[11-hydroxy-1-2',3',6'-trideoxy-3-trifluroacetamido-L-lyxohexopyranose)-5,12-dioxo-3,4,5,12-tetrahydroanthraceno[2,3-c]pyran-3-yl]formate]",IC100,"SF-539; Homo sapiens, SF-539, 48 h, SF-539, read-out: Log10 TGI (converted)",4.37 µM
same,CC50,"SF-539; Homo sapiens, SF-539, 48 h, read-out: Log10 LC50, SF-539 (converted)",9.33 µM
same,GI50,"SF-539; Homo sapiens, SF-539, SF-539, read-out: Log10 GI50 (converted)",2.04 µM
same,Log10 GI50,SF-539; SF-539,-5.90 log molar
same,Log10 TGI,SF-539; SF-539,-5.60 log molar
same,Log10 LC50,"SF-539; SF-539, 2880 min",-5.30 log molar
same,IC100,"OVCAR-4; Homo sapiens, OVCAR-4, 48 h, OVCAR-4, read-out: Log10 TGI (converted)",3.31 µM
same,CC50,"OVCAR-4; Homo sapiens, OVCAR-4, 48 h, read-out: Log10 LC50, OVCAR-4 (converted)",6.03 µM
same,Log10 GI50,OVCAR-4; OVCAR-4,-5.94 log molar
same,Log10 TGI,OVCAR-4; OVCAR-4,-5.63 log molar
same,Log10 LC50,"OVCAR-4; OVCAR-4, 2880 min",-5.31 log molar
same,Log10 GI50,HOP-18; HOP-18,-5.94 log molar
same,Log10 TGI,HOP-18; HOP-18,-5.45 log molar
same,Log10 LC50,"HOP-18; HOP-18, 2880 min",-4.92 log molar
same,IC100,"HOP-18; Homo sapiens, HOP-18, 48 h, HOP-18, read-out: Log10 TGI (converted)",4.9 µM
same,CC50,"HOP-18; Homo sapiens, HOP-18, 48 h, read-out: Log10 LC50, HOP-18 (converted)",16.6 µM
same,GI50,"HOP-18; Homo sapiens, HOP-18, HOP-18, read-out: Log10 GI50 (converted)",1.91 µM
same,CC50,"MCF-7/ADR; Homo sapiens, NCI/ADR-RES, 48 h, read-out: Log10 LC50, MCF-7/ADR (converted)",7.08 µM
same,Log10 LC50,"MCF-7/ADR; MCF-7/ADR, 2880 min",-5.15 log molar and -5.40 log molar
same,Log10 GI50,EKVX,-5.83 log molar
same,Log10 LC50,EKVX; 2880 min,-5.27 log molar
same,CC50,"EKVX; Homo sapiens, 48 h, read-out: Log10 LC50, EKVX (converted)",6.31 µM
same,IC100,"EKVX; Homo sapiens, 48 h, read-out: Log10 TGI (converted)",3.39 µM
same,GI50,"EKVX; Homo sapiens, read-out: Log10 GI50 (converted)",1.78 µM
same,Log10 GI50,HCC-2998; HCC-2998,-5.92 log molar
same,GI50,"HCC-2998; Homo sapiens, HCC 2998, HCC-2998, read-out: Log10 GI50 (converted)",2.34 µM
same,IC100,"RXF-393L; Homo sapiens, 48 h, RXF-393L, read-out: Log10 TGI (converted)",2.63 µM
same,CC50,"RXF-393L; Homo sapiens, 48 h, read-out: Log10 LC50, RXF-393L (converted)",5.37 µM
same,GI50,"RXF-393L; Homo sapiens, RXF-393L, read-out: Log10 GI50 (converted)",1.29 µM
same,Log10 GI50,RXF-393L; RXF-393L,-6.05 log molar
same,Log10 TGI,RXF-393L; RXF-393L,-5.67 log molar
same,Log10 LC50,"RXF-393L; RXF-393L, 2880 min",-5.32 log molar
same,IC100,"UACC-62; Homo sapiens, UACC-62, 48 h, UACC-62, read-out: Log10 TGI (converted)",3.16 µM
same,CC50,"UACC-62; Homo sapiens, UACC-62, 48 h, read-out: Log10 LC50, UACC-62 (converted)",5.62 µM
same,Log10 TGI,UACC-62; UACC-62,-5.77 log molar
same,Log10 LC50,"UACC-62; UACC-62, 2880 min",-5.37 log molar
same,Log10 GI50,UO-31,-5.62 log molar
same,Log10 LC50,UO-31; 2880 min,-4.77 log molar
same,IC100,"MALMB-3M; Homo sapiens, 48 h, MALMB-3M, read-out: Log10 TGI (converted)",3.24 µM
same,CC50,"MALMB-3M; Homo sapiens, 48 h, read-out: Log10 LC50, MALMB-3M (converted)",5.75 µM
same,GI50,"MALMB-3M; Homo sapiens, MALMB-3M, read-out: Log10 GI50 (converted)",1.78 µM
same,Log10 GI50,MALMB-3M; MALMB-3M,-6.02 log molar
same,Log10 TGI,MALMB-3M; MALMB-3M,-5.67 log molar
same,Log10 LC50,"MALMB-3M; MALMB-3M, 2880 min",-5.33 log molar
same,CC50,"SK-MEL-28; Homo sapiens, SK-MEL-28, 48 h, read-out: Log10 LC50, SK-MEL-28 (converted)",7.76 µM
same,Log10 LC50,"SK-MEL-28; SK-MEL-28, 2880 min",-5.37 log molar
same,IC100,"SN-12C; Homo sapiens, SN12C, 48 h, SN-12C, read-out: Log10 TGI (converted)",3.02 µM
same,CC50,"SN-12C; Homo sapiens, SN12C, 48 h, read-out: Log10 LC50, SN-12C (converted)",5.5 µM
same,GI50,"SN-12C; Homo sapiens, SN12C, SN-12C, read-out: Log10 GI50 (converted)",1.62 µM
same,Log10 GI50,SN-12C; SN-12C,-5.94 log molar
same,Log10 TGI,SN-12C; SN-12C,-5.62 log molar
same,Log10 LC50,"SN-12C; SN-12C, 2880 min",-5.31 log molar
same,CC50,"LOX-IMVI; Homo sapiens, LOX IMVI, 48 h, read-out: Log10 LC50, LOX-IMVI (converted)",5.75 µM
same,Log10 LC50,"LOX-IMVI; LOX-IMVI, 2880 min",-5.43 log molar
same,CC50,"UACC-257; Homo sapiens, UACC-257, 48 h, read-out: Log10 LC50, UACC-257 (converted)",6.61 µM
same,Log10 LC50,"UACC-257; UACC-257, 2880 min",-5.47 log molar
same,IC100,"OVCAR-5; Homo sapiens, OVCAR-5, 48 h, OVCAR-5, read-out: Log10 TGI (converted)",3.47 µM
same,CC50,"OVCAR-5; Homo sapiens, OVCAR-5, 48 h, read-out: Log10 LC50, OVCAR-5 (converted)",5.89 µM
same,GI50,"OVCAR-5; Homo sapiens, OVCAR-5, OVCAR-5, read-out: Log10 GI50 (converted)",2 µM
same,Log10 GI50,OVCAR-5; OVCAR-5,-5.73 log molar
same,Log10 TGI,OVCAR-5; OVCAR-5,-5.49 log molar
same,Log10 LC50,"OVCAR-5; OVCAR-5, 2880 min",-5.24 log molar
same,IC100,"SK-MEL-5; Homo sapiens, SK-MEL-5, 48 h, SK-MEL-5, read-out: Log10 TGI (converted)",2.82 µM
same,CC50,"SK-MEL-5; Homo sapiens, SK-MEL-5, 48 h, read-out: Log10 LC50, SK-MEL-5 (converted)",5.5 µM
same,Log10 TGI,SK-MEL-5; SK-MEL-5,-5.73 log molar
same,Log10 LC50,"SK-MEL-5; SK-MEL-5, 2880 min",-5.36 log molar
same,Log10 LC50,"HOP-92; HOP-92, 2880 min",-5.36 log molar
same,CC50,"HOP-92; Homo sapiens, HOP-92, 48 h, read-out: Log10 LC50, HOP-92 (converted)",6.76 µM
same,CC50,"MCF-7; Homo sapiens, MCF7, 48 h, read-out: Log10 LC50, MCF-7 (converted)",5.37 µM
same,GI50,"MCF-7; Homo sapiens, MCF7, MCF-7; read-out: Log10 GI50 (converted)",0.324 µM
same,GI50,"MCF-7; Homo sapiens, MCF7; MCF-7; read-out: Log10 GI50 (converted)",1.55 µM
same,Log10 LC50,MCF-7; MCF-7; 2880 min,-5.38 log molar
same,CC50,"SK-MEL-2; Homo sapiens, SK-MEL-2, 48 h, read-out: Log10 LC50, SK-MEL-2 (converted)",5.75 µM
same,Log10 LC50,"SK-MEL-2; SK-MEL-2, 2880 min",-5.39 log molar
same,Log10 LC50,HCT-15,-5.38 log molar
same,IC100,"NCl-H460; Homo sapiens, 48 h, NCl-H460, read-out: Log10 TGI (converted)",3.98 µM
same,CC50,"NCl-H460; Homo sapiens, NCI-H460, 48 h, read-out: Log10 LC50, NCl-H460 (converted)",8.13 µM
same,Log10 TGI,NCl-H460; NCl-H460,-5.70 log molar
same,Log10 LC50,"NCl-H460; NCl-H460, 2880 min",-5.33 log molar
